For one data set, the system named is CEM. The data set can be described thus: Cytotoxicity in CEM. The class given is cell-based. The following applies: Homo sapiens, CCRF-CEM; Table 2; read-out: IC50 in cancer cell lines, CEM. On the procedure: (§1) Ligase IV specificity of the compounds of the present invention inside the cells were also determined using Ligase IV knock out (KO) cell line N114 compared to the wild type Nalm6 (Table 2, FIGS. 5C, D, E and F). […] Table 1 showing IC50 of SCR7 derivatives in cancer cell lines Nalm6 and HeLa. IC50 was calculated using GraphPad Prism software from the percentage of viable cells following treatment with the compounds at 48 h. Table 2 showing IC50 of SCR116 and SCR132 in a panel of 16 cancer cell lines.

For a further data set, the system named is MCF7. The data set is described as follows: Cytotoxicity in MCF7. It is filed as cell-based. The following applies: Homo sapiens, MCF7; Table 2; read-out: IC50 in cancer cell lines, MCF7. The method, then: as §1
Another data set concerns SCC131 derived xenograft. The data set can be described thus: Mouse xenograft model, SCC131. It is filed as in vivo. To be noted: oral cancer SCC131 xenograft; 8 oral doses.
For another data set, the system named is U118. The data set is described as follows: Cytotoxicity in U118. To be noted: Table 2; read-out: IC50 in cancer cell lines, U118. The class given is cell-based. On the procedure:
as §1

For the next data set, the system named is 53BP1 foci in HeLa cells. The data set can be described thus: 53BP1 immunofluorescence in HeLa cells. To be noted: alone or alongside radiation; 24 h. The class given is cell-based. On the procedure: FIG. 7(A-F) depicts evaluation of generation of double-strand breaks inside cells treated with compounds SCR116 and SCR132 alone or in combination, A. Immunofluorescence with 53BP1 in HeLa cells treated with increasing concentration of SCR116 (2 and 5 μM) and SCR132 (1 and 2 μM). Nucleus is stained in red using propidium iodide, while green signal represents 53BP1 foci (FITC). B. Quantification of 53BP1 foci inside HeLa cells treated with SCR116 and SCR132 for 24 h, as denoted using scatter plot. Significance was calculated using ANOVA in GraphPad Prism software (ns, not significant; *p<0.05, **p<0.005, ***p<0.0001). C-D. Bar graphs showing percentage of viable cells following treatment with the compounds alone, or in presence of γ-radiation (0.5 Gy) at 24 (C) and 48 h (D). 2 and 4 μM SCR116, and 1 and 2 μM SCR132 were used. E. Bar graph showing percentage of viable cells following treatment with SCR116 (0.375 μM) or SCR132 (0.125 μM) alone, or in presence of 0.25 μM etoposide at 48 h. F. Bar graph showing percentage of viable cells following treatment with SCR116 (0.375 μM) or SCR132 (0.125 μM) alone, or in presence of 0.375 μM 5-FU at 48 h, in accordance with an implementation of the present disclosure.

The next data set has as its system HCT116 derived xenograft. The data set is described as follows: Mouse xenograft model, HCT116. It is filed as in vivo.
The subject of a further data set is Nalm6. The data set is described as follows: Cytotoxicity (viable cells) in Nalm6. The class given is cell-based. To be noted: Homo sapiens, NALM-6, read-out: IC50 in cancer cell lines, Nalm6. The method, then: The compounds of the present invention were screened initially in leukemic and cervical cancer cell lines (Table 1). […] In cervical cancer cell line HeLa, IC50 was 5 and 2 μM, respectively for SCR116 and SCR132 (FIG. 5A-B).
as §1

The nature of data set [1]: 10 days dose ranging toxicity study. It is filed as in vivo, Swiss albino mice. The following applies: for Hemoglobin, MCHC, total leukocyte count and platelets: after 10 days of dose-ranging study; for Body weight: oral 80, 160 and 320 mg/kg b.wt., male and female, days 1, 8, 15, 22. The method, then: FIG. 12 depicts 10 days dose ranging toxicity studies of SCR116 and SCR132 (A) Body weight analyses of mice on 1, 8, 15 and 22 days after oral administration of low, medium and high concentrations of SCR116 and SCR132 (80, 160 and 320 mg/kg b.wt. respectively) in male. Mice treated with methyl cellulose served as vehicle control; and (B) Body weight analyses of mice on 1, 8, 15 and 22 days after oral administration of SCR116 and SCR132 (80, 160 and 320 mg/kg b.wt. respectively) in female.
FIG. 13 depicts the blood parameters analysis of Swiss albino mice after 10 days of dose-ranging study after treating with SCR116 and SCR132. A. RBC (n=3). B. Hemoglobin (n=3). C. MCHC (n=3). D. Total leukocyte count (n=3). E. Platelet count (n=3) (ns: not significant, *p<0.05: **p<0.005).

Data set [2] has as its system V(D)J recombination in Nalm6 (pGG49). The data set is described as follows: V(D)J recombination in Nalm6 using pGG49. The class given is cell-based. The following applies: for Fold reduction in recombination efficiency: vs vehicle control. The method, then:
Evaluation of efficiency of V(D)J recombination following treatment with SCR116 and SCR132 was carried out as depicted in FIGS. 6(A-C). Tables 4 and 5 summarize the effect of SCR116 (1 and 2 μM) and SCR132 (0.5 and 1 μM) on V(D)J recombination in Nalm6 using pGG49 and pGG51, respectively.

Where “and” joins values, the source holds several entries; their conditions need not be identical. Equal values may be shown once. Read-outs that look alike come from different tables or passages of the source.

Regarding `Nc1nc(S)nc(O)c1/N=C/c1ccc([N+](=O)[O-])s1` [Compound 16, (E)-6-amino-2-mercapto-5-(((5-nitrothiophen-2-yl)methylene)amino)pyrimidin-4-ol], the IC50 (as a rule, the concentration at which inhibition is half-maximal) in the data set with CEM amounted to 5.77 µM; in the data set on MCF7, 10 µM; in the data set with U118, 5.6 µM; in the data set on Nalm6 (Table 1, 48 h), 3.44 µM; with Nalm6 (Table 2), 3.44 µM. The Tumor volume entry with SCC131 derived xenograft and with HCT116 derived xenograft was “significant reduction in tumor volume” each time. Also, the “DNA damage marker 53BP1” value with 53BP1 foci in HeLa cells is “increase in DNA damage marker 53BP1”. The “Hemoglobin, MCHC, total leukocyte count and platelets” value in data set [1] was “no significant difference in hemoglobin, MCHC, total leukocyte count and platelets”. The RBC count result in [1] (low doses, values still within the normal range) is recorded as “significant difference in RBC count”. For the same molecule, the Body weight entry in data set [1] was “no significant change in body weight”. The “Recombination efficiency (CA/A) ×100” value is 0.050 in [2] (1 μM) and 0.013 in [2] (2 μM). For the same molecule, the “Fold reduction in recombination efficiency” value was 5.2 fold in [2] (1 μM); 20 fold and 20.0 fold in data set [2] (2 μM, listed as SCR116).
For `Nc1nc(S)nc(O)c1/N=C/c1sc(Cl)nc1Cl` [Compound 32, (E)-6-amino-5-(((2,4-dichlorothiazol-5-yl)methylene)amino)-2-mercaptopyrimidin-4-ol], the concentration for half-maximal inhibition (IC50) with CEM is 3.83 µM; with MCF7, 5 µM; with U118 it was 4.1 µM; in the data set with Nalm6 (Table 1, 48 h), 1.79 µM; with Nalm6 (Table 2) it was 1.79 µM. For the same molecule, the Tumor volume entry with SCC131 derived xenograft and with HCT116 derived xenograft was “significant reduction in tumor volume” throughout. Besides, the “DNA damage marker 53BP1” value in the data set with 53BP1 foci in HeLa cells is listed as “increase in DNA damage marker 53BP1”. Moreover, in data set [1], the “Hemoglobin, MCHC, total leukocyte count and platelets” value is “no significant difference in hemoglobin, MCHC, total leukocyte count and platelets”. The Body weight entry in data set [1] is “no significant change in body weight”. Moreover, the “Recombination efficiency (CA/A) ×100” value is 0.030 in [2] (0.5 μM) and 0.009 in data set [2] (1 μM). Moreover, the “Fold reduction in recombination efficiency” value came to 9.3 fold in data set [2] (0.5 μM) and 31.1 fold in data set [2] (1 μM).

These data come from patent publication US20250100977A1, “MERCAPTOPYRIMIDINE COMPOUNDS THAT INHIBIT NONHOMOLOGOUS END JOINING AND METHODS THEREOF” (INDIAN INSTITUTE OF SCIENCE, priority 2021, published 2025).
